From patent US4567178A, “Substituted 5,11-dihydro-6H-dibenz[b,e]azepin-6-ones and pharmaceutical compositions containing same” (Dr. Karl Thomae GmbH, priority 1984, dated 1986)

Experiments:
[1] = tested on: oxotremorine-induced secretion of saliva; assay: Oxotremorine test: inhibition of oxotremorine-induced salivation; type: in vivo, rat (Crl:COBS-CD(SD) BR, female albino); details: Rattus norvegicus, iv, read-out: Oxotremorine Tests: Inhibition of Salivation ED50
Procedure: Oxotremorine, a specific agonist at muscarinic receptors, produces lesions of the gastric mucosa in rats and increases the secretion of saliva. This test model was chosen to be able to determine any selective activity of an antimuscarinic substance on the stomach.
Ten female albino rats (of the Crl:COBS-CD(SD) BR strain) with a body weight of from 120 to 150 gm were used for each treatment group. These rats were given free access to drinking water but were deprived of food for 24 hours before the start of the test.
To determine, in preliminary tests, the muscarinic effect of oxotremorine on each of the symptoms investigated, a dosage-activity curve was plotted with at least three doses for each symptom.
When testing antimuscarinic substances, the oxotremorine dosage used was the dosage which triggered the symptom to be influenced in 90 to 100% of the animals in the preliminary tests.
Secretion of saliva: 0.083 mg/kg i.v.
Each antimuscarinic substance was administered in uniformly graduated dosages by intravenous route 15 minutes before the administration of oxotremorine. Control groups were given the solvent and suspension agent in corresponding amounts instead of the test substance.
The results were expressed as the percentage inhibition of the oxotremorine effect (percentage of the animals without the symptom in question). The ED50 values were determined using the method of LITCHFIELD and WILCOXON (J. Pharmacol. Exp. Ther. 96, 99, 1949).

[2] = target: T1, muscarinic receptors (smooth muscle from fundus of stomach) (Rattus norvegicus, UniProt P10980); assay: Muscarinic receptor binding (inhibition of specific 3H-N-methylscopolamine binding), smooth muscle from fundus of stomach; design: species or system rat (male Sprague-Dawley)
T1 construct: Smooth muscle of the fundic section of the stomach was separated from the gastric mucosa; from tissue; host or cells: fundic smooth muscle homogenate of the stomach of male Sprague-Dawley rats
T1 sequence (P10980 1-466): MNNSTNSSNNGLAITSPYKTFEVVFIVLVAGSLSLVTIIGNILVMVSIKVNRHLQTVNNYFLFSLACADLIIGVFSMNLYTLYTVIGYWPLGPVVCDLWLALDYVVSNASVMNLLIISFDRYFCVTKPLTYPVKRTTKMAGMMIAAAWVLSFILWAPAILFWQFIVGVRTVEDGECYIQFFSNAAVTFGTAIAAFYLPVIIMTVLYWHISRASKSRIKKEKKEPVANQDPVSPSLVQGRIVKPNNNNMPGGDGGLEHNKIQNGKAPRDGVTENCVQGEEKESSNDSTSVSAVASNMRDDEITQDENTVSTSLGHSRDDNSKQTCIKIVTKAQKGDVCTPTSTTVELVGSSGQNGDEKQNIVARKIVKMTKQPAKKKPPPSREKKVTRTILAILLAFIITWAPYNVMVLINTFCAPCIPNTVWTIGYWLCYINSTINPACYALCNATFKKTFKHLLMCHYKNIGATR
Procedure: (§1) Determination of the IC50 value
(§2) The organ donors were male Sprague-Dawley rats weighing from 180 to 220 gm. After the removal of the stomach and cerebral cortex, all the other steps were carried out in ice-cold HepesHCl buffer (pH 7.4:100 m molar NaCl, 10 m molr MgCl2). Smooth muscle of the fundic section of the stomach was separated from the gastric mucosa and subjected to preliminary homogenization. All the organs were then homogenized in a potter apparatus.
(§3) For the binding test, the homogenized organ preparations were diluted as follows:
Smooth muscle from the funding of the stomach: 1:100.
(§4) The homogenized organ preparations were incubated in an Eppendorf centrifugal tube at 30° C. with a specific concentration of the radioligand and a concentration series of the non-radioactive test substances. The period of incubation was 45 minutes. 0.3N molar ^3 H-N-methylscopolamine (^3 H-NMS) was used as the radioligand. After the incubation had been stopped by centrifuging at 14,000 g, the radioactivity in the pellet was determined. It represents the sum of specific and non-specific binding of ^3 H-NMS. The proportion of non-specific binding was defined as the radioactivity which was bound in the presence of 1μ molar quinuclidinyl benzylate. Four measurements were taken in each case. The IC50 values of the non-labelled test substances were determined graphically. They represent the concentration of test substance at which the specific binding of ^3 H-NMS to the muscarinic receptors in the various organs was inhibited by 50%.

[3] = Mydriasis (effect on pupil size); details: rat, in vivo, iv, pupil size observed for ten minutes
Procedure: The effect of the test substances on the pupil size in rats was investigated as follows:
The substances were administered intravenously to groups of ten animals in at least three uniformly graduated dosages. The pupil size was then observed for ten minutes to see if there were any changes (the occurrence of mydriasis or miosis), and the test was carried out blind, i.e., the investigator was not aware of the preliminary treatment received by the animals. The percentage of test animals in which mydriasis occurred was determined. The ED50 values were again determined according to LITCHFIELD and WILCOXON (see above).

[4] = target: muscarinic receptors (cerebral cortex); assay: Muscarinic receptor binding (inhibition of specific 3H-N-methylscopolamine binding), cerebral cortex; design: species or system rat (male Sprague-Dawley); details: rat cerebral cortex homogenate 1:3000, 3H-NMS, 30° C., 45 minutes; read-out: Receptor Binding Tests IC50, Cortex
Procedure: as §1, §2, §3
as §4, with “They represent the concentration of test substance at which the specific binding of ^3 H-NMS to the muscarinic receptors in the various organs was inhibited by 50%.” left out

With `CN1CCC(NC(=O)C2c3ccccc3NC(=O)c3ccccc32)CC1` (centres unmarked) [A, 5,11-Dihydro-11-[[(1-methyl-4-piperidinyl)-amino]-carbonyl]-6H-dibenz[b,e]azepin-6-one] the ED50 [1] was 0.19 mg/kg, the IC50 [2] was 700 nM and the ED50 at 10 min [3] was 0.075 mg/kg. For the same compound, the IC50 [4] was 40 nM.
For `CN1CCC(CC(=O)C2c3ccccc3NC(=O)c3ccccc32)CC1` (centres unmarked) [B, 5,11-Dihydro-11-[(1-methyl-4-piperidinyl)-acetyl]-6H-dibenz[b,e]azepin-6-one], the ED50 [1] was 0.186 mg/kg, the IC50 [2] was 150 nM and the ED50 at 10 min [3] was 0.179 mg/kg. It also gave an IC50 [4] of 25 nM.
`CN1CCN(CC(=O)C2c3ccccc3NC(=O)c3ccccc32)CC1` (centres unmarked) [C, 5,11-Dihydro-[(4-methyl-1-piperazinyl)-acetyl]-6H-dibenz[b,e]azepin-6-one] gave an ED50 [1] of 0.335 mg/kg, an IC50 [2] of 400 nM and an ED50 at 10 min [3] of 0.161 mg/kg.
